The values below are quoted from earlier work in patent US9326930B2, “Calcium sequestration compositions and methods of treating skin pigmentation disorders and conditions” (NEOCUTIS S.A., priority 2009, dated 2016).

The test system of one series is B16F0 melanoma cells. The settings on record: L-forms, not D-forms.
For series [1], the target named is melanocortin receptor 1 (MC1R) (Homo sapiens, UniProt Q01726).
Series [2] has as its system melanocyte-keratinocyte co-cultures. The following applies: intracellular calcium in keratinocytes chelated.

Chain of melanocortin receptor 1 (MC1R) (Q01726 whole entry, species assumed): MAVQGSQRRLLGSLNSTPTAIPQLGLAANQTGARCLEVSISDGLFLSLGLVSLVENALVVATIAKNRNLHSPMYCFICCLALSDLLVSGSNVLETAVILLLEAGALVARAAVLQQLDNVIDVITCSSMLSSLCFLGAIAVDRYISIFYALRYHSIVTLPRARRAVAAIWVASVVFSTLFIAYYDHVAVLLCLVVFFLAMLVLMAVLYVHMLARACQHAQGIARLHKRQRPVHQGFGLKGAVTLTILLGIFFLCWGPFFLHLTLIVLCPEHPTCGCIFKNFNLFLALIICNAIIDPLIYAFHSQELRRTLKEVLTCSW

For `C[C@H](N)C(=O)O` [L-alanine], the effect on pigmentation result in the series on B16F0 melanoma cells is recorded as “hypopigmenting effects”. `CC[C@H](C)[C@H](N)C(=O)O` [L-isoleucine]: the effect on pigmentation result with B16F0 melanoma cells is listed as “hypopigmenting effects”. For the compound `CC(C)C[C@H](N)C(=O)O` [L-leucine], the effect on pigmentation result with B16F0 melanoma cells is listed as “hypopigmenting effects”.

Take `C=CCCCCCCCCC(=O)N[C@@H](Cc1ccccc1)C(=O)O` [undecylenoyl phenylalanine]: the “affinity to MC1R” value in series [1] is reported as “affinity towards MC1R”. In addition, the “action on α-MSH” value in series [1] (in vitro) is recorded as “antagonist of α-MSH”. Turning to `CC(=O)OCOC(=O)CN(CC(=O)OCOC(C)=O)c1ccccc1OCCOc1ccccc1N(CC(=O)OCOC(C)=O)CC(=O)OCOC(C)=O` [BAPTA-AM, 1,2-bis-(o-aminophenoxy)-ethane-N,N,N′,N′-tetraacetic acid tetra-acetoxymethyl ester], the melanin transfer entry in series [2] is “melanin transfer was inhibited”. As to `NCC(=O)O` [glycine], the effect on pigmentation result with B16F0 melanoma cells is listed as “hypopigmenting effects”.
